Assay results from US11708340B2, “Benzothia(di)azepine compounds and their use as bile acid modulators” (Albireo AB, priority 2019, dated 2023).

Experiments:
[1] = target: T1, Human LBAT (Homo sapiens, UniProt Q14973); test: LBAT (h/m) assay, human LBAT-overexpressing cells, 3H-taurocholic acid uptake; type: cell-based; conditions: 0.3 μM 3H-taurocholic acid and 7.5 μM cold taurocholic acid, 20 minutes, read-out: hLBAT IC50
T1 construct: expressed in transfected cells; Geneticin selection
T1 sequence (Q14973 1-349): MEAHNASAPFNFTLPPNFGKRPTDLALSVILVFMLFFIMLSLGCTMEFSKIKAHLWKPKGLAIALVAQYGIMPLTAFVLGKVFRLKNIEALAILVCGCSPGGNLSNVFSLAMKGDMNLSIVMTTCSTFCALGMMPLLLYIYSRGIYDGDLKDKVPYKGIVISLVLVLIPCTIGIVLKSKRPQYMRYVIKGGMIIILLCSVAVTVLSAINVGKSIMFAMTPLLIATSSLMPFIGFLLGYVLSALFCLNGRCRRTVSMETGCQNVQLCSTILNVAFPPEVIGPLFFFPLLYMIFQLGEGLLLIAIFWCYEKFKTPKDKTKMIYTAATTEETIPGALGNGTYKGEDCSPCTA
Description: 20,000 cells (Human or Mouse LBAT-overexpressing cells) were seeded in 96-wells plate (Corning CLS3809) in 100 μL MEM-alpha medium (Gibco 12571-063) supplemented with 10% FBS (Gibco 10438026) containing Geneticin (Gibco 10131-027) (1 mg/mL) and incubated at 37° C. in 5% CO2 for 24 hours. After incubation, media was decanted from the wells and cells were washed two times with 300 μL of basal MEM-alpha medium (FBS-free). After decanting basal MEM-alpha medium each time, plates were tapped against paper towel to ensure maximum removal of residual media.
For human LBAT, incubation mix was prepared by adding test inhibitor dilutions (3-fold serial dilution in DMSO (Sigma D2650), 10 points) in MEM-alpha (without FBS) containing 0.3 μM 3H-taurocholic acid (ARC ART-1368) and 7.5 μM cold taurocholic acid (Sigma T4009) (maintaining 0.2% final DMSO concentration). For mouse LBAT, incubation mix was prepared by adding test inhibitor dilutions (3-fold serial dilution in DMSO, 10 points) in MEM-alpha (without FBS) containing 0.3 μM 3H-taurocholic acid and 25 μM cold taurocholic acid maintaining 0.2% final DMSO concentration).
50 μL of incubation mix containing test inhibitors was then added to the wells (in duplicate) and the plates were incubated for 20 minutes in a CO2 incubator at 37° C. After incubation, the reaction was stopped by keeping the plates on ice water mix for 2-3 minutes and then the incubation mix was aspirated completely from the wells. The wells were washed two times with 250 μL of chilled unlabeled 1 mM taurocholic acid dissolved in HEPES (Gibco 15630080)-buffered (10 mM) HBSS (Gibco 14175079) (pH 7.4). The plates were tapped against a paper towel after every wash to ensure maximum removal of blocking buffer.
100 μL of MicroScint-20 (PerkinElmer 6013621) was added to the wells and kept overnight at room temperature before reading the plates in TopCount NXT™ Microplate Scintillation and Luminescence Counter from PerkinElmer under 3H Test protocol (set at 120 seconds reading time per well, with normal plate orientation).
(§1) All test compounds were provided in powder form at room temperature. 10 mM DMSO stocks of the test compounds were prepared, aliquoted and stored at −20° C. From the 10 mM DMSO stock of the compounds, a 3-fold serial dilution in DMSO was prepared to get a total of 10 dilutions of the test compounds. 0.5 μL of this dilution in DMSO was added to 250 μL of FBS-free basal media containing 3H-taurocholic acid and cold taurocholic acid to prepare the incubation mixture.

[2] = target: T2, Human IBAT (Homo sapiens, UniProt Q12908); test: IBAT (h/m) assay, human IBAT-overexpressing cells, 3H-taurocholic acid uptake; type: cell-based; conditions: highest test concentration 10 μM, 20 minutes, read-out: hIBAT IC50
T2 construct: expressed in transfected cells; Puromycin selection
T2 sequence (Q12908 1-348): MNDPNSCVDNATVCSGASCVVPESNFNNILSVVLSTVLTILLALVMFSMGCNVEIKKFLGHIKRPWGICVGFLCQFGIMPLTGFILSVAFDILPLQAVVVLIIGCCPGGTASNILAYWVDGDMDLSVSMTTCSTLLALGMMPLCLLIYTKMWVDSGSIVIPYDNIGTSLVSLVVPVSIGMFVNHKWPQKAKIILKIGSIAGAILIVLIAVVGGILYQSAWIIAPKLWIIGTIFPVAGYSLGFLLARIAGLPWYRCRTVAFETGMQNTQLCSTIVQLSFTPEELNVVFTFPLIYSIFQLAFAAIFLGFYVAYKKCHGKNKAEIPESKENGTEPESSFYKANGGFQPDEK
Description: 10,000 cells (Human or Mouse IBAT-overexpressing cells) were seeded in 96-wells plate (Corning CLS3809) in 200 μL MEM-alpha medium (Gibco 12571-063) supplemented with 10% FBS (Gibco 10438026) containing Puromycin (Gibco A1113803) (10 μg/mL) and incubated at 37° C. in 5% CO2 for 48 hours. After incubation, media was decanted from the wells and cells were washed two times with 300 μL of basal MEM-alpha medium (FBS-free). After decanting basal MEM-alpha medium each time, plates were tapped against paper towel to ensure maximum removal of residual media. Test inhibitor dilutions (highest test concentration being 10 μM, 3-fold serial dilution, 10 points) prepared in DMSO (Sigma D2650) were added in incubation mix (maintaining 0.2% final DMSO concentration) containing 0.25 μM 3H-taurocholic acid (ARC ART-1368) and 5 μM of cold taurocholic acid (Sigma T4009). 50 μL of incubation mix containing test inhibitors was then added to the wells (in duplicate) and the plates were incubated for 20 minutes in a CO2 incubator at 37° C. After incubation, the reaction was stopped by keeping the plates on ice water mix for 2-3 minutes and then the incubation mix was aspirated completely from the wells. The wells were washed two times with 250 μL of chilled unlabeled 1 mM taurocholic acid dissolved in HEPES (Gibco 15630080)-buffered (10 mM) HBSS (Gibco 14175079) (pH 7.4). The plates were tapped against a paper towel after every wash to ensure maximum removal of blocking buffer.
100 μL of MicroScint-20 (PerkinElmer 6013621) was added to the wells and kept overnight at room temperature before reading the plates in TopCount NXT™ Microplate Scintillation and Luminescence Counter from PerkinElmer under 3H Test protocol (set at 120 seconds reading time per well).
as §1

IC50 [1] [nM] | IC50 [2] [nM] | Compound
3.4 |  | CCCCC1CN(c2ccccc2)c2cc(SC)c(O/C=C/C(=O)O)cc2S(=O)(=O)N1C (racemic) [Example 14, (E)-3-((3-butyl-2-methyl-7-(methylthio)-1,1-dioxido-5-phenyl-2,3,4,5-tetrahydro-1,2,5-benzothiadiazepin-8-yl)oxy)acrylic Acid]
2.3 |  | CCCCC1CN(c2ccccc2)c2cc(SCC)c(O/C=C/C(=O)O)cc2S(=O)(=O)N1C (racemic) [Example 17, (E)-3-((3-butyl-7-(ethylthio)-2-methyl-1,1-dioxido-5-phenyl-2,3,4,5-tetrahydro-1,2,5-benzothiadiazepin-8-yl)oxy)acrylic Acid]
4.5 | 1150 | CCCCC1CN(c2ccc(F)cc2)c2cc(SC)c(O/C=C/C(=O)O)cc2S(=O)(=O)N1C (racemic) [Example 20, (E)-3-((3-butyl-5-(4-fluorophenyl)-2-methyl-7-(methylthio)-1,1-dioxido-2,3,4,5-tetrahydro-1,2,5-benzothiadiazepin-8-yl)oxy)acrylic Acid]
8.7 | > 10000 | CCCCC1CN(c2ccc(F)cc2)c2cc(SC)c(O/C=C/C(=O)O)cc2S(=O)(=O)C1 (racemic) [Example 26, (E)-3-((3-butyl-5-(4-fluorophenyl)-7-(methylthio)-1,1-dioxido-2,3,4,5-tetrahydro-1,5-benzothiazepin-8-yl)oxy)acrylic Acid]
469 |  | CCCC[C@@H]1CN(c2ccccc2)c2cc(SC)c(O/C=C/C(=O)O)cc2S(=O)(=O)C1 (single isomer, unassigned) [Example 2]
28 |  | CCCC[C@H]1CN(c2ccccc2)c2cc(SC)c(O/C=C(\F)C(=O)O)cc2S(=O)(=O)C1 (single isomer, unassigned) [Example 5]
78 |  | CCCC[C@H]1CN(c2ccccc2)c2cc(SC)c(O/C=C(\F)C(=O)O)cc2S(=O)(=O)N1C (single isomer, unassigned) [Example 12]
105 |  | CCCC[C@@H]1CN(c2ccccc2)c2cc(SC)c(O/C=C/C(=O)O)cc2S(=O)(=O)N1C (single isomer, unassigned) [Example 16]
70 | > 10000 | CCCC[C@@H]1CN(c2ccccc2)c2cc(SCC)c(O/C=C/C(=O)O)cc2S(=O)(=O)N1C (single isomer, unassigned) [Example 19]
3 | 644 | CCCC[C@H]1CN(c2ccc(F)cc2)c2cc(SC)c(O/C=C/C(=O)O)cc2S(=O)(=O)N1C (single isomer, unassigned) [Example 21]
591 | > 10000 | CCCC[C@@H]1CN(c2ccc(F)cc2)c2cc(SC)c(O/C=C/C(=O)O)cc2S(=O)(=O)N1C (single isomer, unassigned) [Example 22]
0.34 | 265 | CCCC[C@H]1CN(c2ccc(F)cc2)c2cc(SCC)c(O/C=C/C(=O)O)cc2S(=O)(=O)N1C (single isomer, unassigned) [Example 24]
267 |  | CCCC[C@@H]1CN(c2ccc(F)cc2)c2cc(SCC)c(O/C=C/C(=O)O)cc2S(=O)(=O)N1C (single isomer, unassigned) [Example 25]
354 | > 10000 | CCCC[C@H]1CN(c2ccc(F)cc2)c2cc(SC)c(O/C=C/C(=O)O)cc2S(=O)(=O)C1 (single isomer, unassigned) [Example 27]
1.9 | > 3330 | CCCC[C@@H]1CN(c2ccc(F)cc2)c2cc(SC)c(O/C=C/C(=O)O)cc2S(=O)(=O)C1 (single isomer, unassigned) [Example 28]
73 |  | CCC1CN(c2ccccc2)c2cc(SC)c(O/C=C(\F)C(=O)O)cc2S(=O)(=O)C1 (centres unmarked) [Example 7, (Z)-3-((3-ethyl-7-(methylthio)-1,1-dioxido-5-phenyl-2,3,4,5-tetrahydro-1,5-benzothiazepin-8-yl)oxy)-2-fluoroacrylic Acid]
242 |  | CCC1CN(c2ccccc2)c2cc(SC)c(O/C=C/C(=O)O)cc2S(=O)(=O)C1 (centres unmarked) [Example 8, (E)-3-((3-ethyl-7-(methylthio)-1,1-dioxido-5-phenyl-2,3,4,5-tetrahydro-1,5-benzothiazepin-8-yl)oxy)acrylic Acid]
8.2 |  | CCCCC1CN(c2ccccc2)c2cc(SC)c(O/C=C/C(=O)O)cc2S(=O)(=O)N1 (centres unmarked) [Example 9, (E)-3-((3-butyl-7-(methylthio)-1,1-dioxido-5-phenyl-2,3,4,5-tetrahydro-1,2,5-benzothiadiazepin-8-yl)oxy)acrylic Acid]
1.1 | 830 | CCCCC1CN(c2ccccc2)c2cc(SC)c(O/C=C(\F)C(=O)O)cc2S(=O)(=O)N1C (centres unmarked) [Example 11, (Z)-3-((3-butyl-2-methyl-7-(methylthio)-1,1-dioxido-5-phenyl-2,3,4,5-tetrahydro-1,2,5-benzothiadiazepin-8-yl)oxy)-2-fluoroacrylic Acid]
9.5 | > 10000 | CCCCC1CN(c2ccccc2)c2cc(SCC)c(O/C=C/C(=O)O)cc2S(=O)(=O)C1 (centres unmarked) [Example 30, (E)-3-((3-Butyl-7-(ethylthio)-1,1-dioxido-5-phenyl-2,3,4,5-tetrahydro-1,5-benzothiazepin-8-yl)oxy)acrylic Acid]
 | > 10000 | CCCCC1CN(c2ccccc2)c2cc(SCC)c(O/C=C/C(=O)O)cc2S(=O)(=O)N1 (centres unmarked) [Example 31, (E)-3-((3-Butyl-7-(ethylthio)-1,1-dioxido-5-phenyl-2,3,4,5-tetrahydro-1,2,5-benzothiadiazepin-8-yl)oxy)acrylic Acid]
 | > 10000 | CCCCC1CN(c2ccc(F)cc2)c2cc(SCC)c(O/C=C/C(=O)O)cc2S(=O)(=O)C1 (centres unmarked) [Example 32, (E)-3-((3-Butyl-7-(ethylthio)-5-(4-fluorophenyl)-1,1-dioxido-2,3,4,5-tetrahydro-1,5-benzothiazepin-8-yl)oxy)acrylic Acid]
